Results reported in paper PMC10451034, “Highly Efficient Photosensitizers with Molecular Vibrational Torsion for Cancer Photodynamic Therapy” (ACS Central Science, 2023).
“Also recorded” adds a separate entry of the source.

How the values were obtained:
[1] = Singlet oxygen yield in PBS with singlet oxygen sensor green (SOSG); format: physicochemical; settings: 660 nm irradiation
Description: In order to further investigate the PDT ability of QTCy7-R on cancer cells, the UV–vis absorption and emission spectra and ^1O2 production capacity of QTCy7-R were tested in phosphate-buffered solution (PBS) to better mimic the cellular environment. […] Meanwhile, the fluorescence quenching of QTCy7-Ph and QTCy7-CHO also confirmed their aggregation in aqueous solution compared to the intense fluorescence emission of QTCy7-Ac. Furthermore, singlet oxygen sensor green (SOSG) was selected to investigate the ^1O2 quantum yield in PBS.
(§1) QTCy7-Ph, (e) QTCy7-Ac, (f) QTCy7-CHO, (g) TCy7 and (h) MB under 660 nm irradiation (4 mW/cm2) in PBS. (i) The relative singlet oxygen yield of different compounds in PBS.
(§2) Figure S19. (a) The cellular uptake of QTCy7-R in HepG2 cells (QTCy7-Me/QTCy7-Ph: λex = 640 […]
(§3) μm). (b) The fluorescence intensity of QTCy7-R in cell at different time. (c) The LDH release rate of cells under different treatment conditions.
(§4) Figure S20. The enlarged images of (a) QTCy7-Ac and (b) QTCy7-CHO caused cell membrane destruction at 0 min and 4 min. Yellow arrows indicate the formation of distinct bubble-like structures on cell membrane. (λex = 640 nm, λem = 650-750 nm, scale bars: 20 μm). […]

[2] = tested on: human mammary carcinoma (MCF7); experiment: MTT cytotoxicity assay, MCF7; format: cell-based; settings: light or radiation study, MCF7, 660 nm irradiation 12 J/cm^2
Description: DMEM medium was replaced with saline to prevent false positive interference. Then the cells were exposed to different following treatments: 1) cells incubated with PBS; 2) cells incubated with PBS under 660 nm irradiation (20 mW/cm2, 10 min); 3) cells incubated with QTCy7-R; 4) cells incubated with QTCy7-R under 660 nm irradiation (20 mW/cm2, 10 min). After being different treated, the cells were stained with Calcein-AM and Propidium Iodide (PI) according to the manufacture instruction. Then the confocal fluorescence imaging was carried out and recorded with a 10 × objective lens.
(§5) Cytotoxicity was tested by the reduction of methyl thiazolyl tetrazolium to formazan by succinic acid dehydrogenase in the mitochondria of living cells (MTT assay). […] The MTT solution was carefully removed and 100 μL DMSO was added to dissolve formazan, and the absorbance of each well was measured by a multifunctional microplate reader at 570 nm and 630 nm. […]
Where “OD” represent the absorbance at 570 nm and 630 nm, “ps” and “control” represent experimental groups and control groups, respectively. […]
And the fluorescence signals were monitored at different post -injection time by a NightOWL II LB983 small animal in vivo imaging system (German). […]

HepG2 cells = experiment: Lactate dehydrogenase (LDH) release into cell culture medium; format: cell-based, human; settings: under irradiation
Description: Next, in order to verify the disruption effect on cell structural integrity of the ^1O2 generation by QTCy7-R under irradiation, JC-1 staining imaging was conducted to monitor the mitochondria membrane potential. […] On the other hand, cell membrane damage caused by the photooxidation of QTCy7-Ac and QTCy7-CHO could be confirmed by a visualized observation. […] Furthermore, the lactate dehydrogenase (LDH) content in cell culture medium was measured to characterize the extent of cell membrane damage.[49]
as §1, §2, §3, §4

[3] = tested on: 4T1 subcutaneous solid tumor; experiment: In vivo fluorescence imaging of 4T1 tumor-bearing mice; set-up: species or system BALB/c mice
From the text: The prospective in vitro results prompted us to further explore in vivo application possibility of QTCy7-Ac, and a solid tumor model of BALB/c mice was established by inoculating 4T1 cells subcutaneously under the armpit (Figure 10a). All the BALB/c mice were purchased from Liaoning Changsheng Biotechnology Co., Ltd., and the animal experiments were approved by the Local Scientific Research Ethics Review Committee of the Animal Ethics Committee of Dalian University of Technology (ID no. // Ethics Approval No. 2021-043). When the tumor volume reached 100 mm^3, fluorescence imaging was performed at different time points after intravenous injection of QTCy7-Ac. […] To test this hypothesis, the mice were executed and dissected 2.5 h after intravenous injection, and the fluorescence imaging of the main organs and tumor was performed.
DMEM medium was replaced with saline to prevent false positive interference. […] Then the confocal fluorescence imaging was carried out and recorded with a 10 × objective lens.
as §5

SMILES: CCOC(=O)C1=C/C(=C\C=C2/Sc3ccccc3N2CC)C(=O)C(/C=C/c2sc3ccccc3[n+]2CC)=C1 [QTCy7-Ac]
- 1O2 quantum yield relative to MB [1]: 5.8 times
- IC50 [2]: ~0.6 µM
- LDH release rate (HepG2 cells): about 70%
- time at which tumor region is lit up ([3]; after intravenous injection, 200 μM 100 μL): around 60 min
- route of metabolism / organ distribution by ex vivo fluorescence ([3]; organs and tumor 2.5 h after intravenous injection): metabolized primarily through the kidney; also recorded: non-negligible fluorescence signal stronger than the liver
